Source: US9637495B2, “CGRP receptor antagonists” (Eli Lilly and Company, priority 2015, dated 2017)

molecular target: T1, human CGRP receptor (Homo sapiens, UniProt O60894+Q16602); experiment: Inhibition of cAMP production by CGRP receptor antagonists in SK-N-MC cells (HTRF); assay type: cell-based; conditions: SK-N-MC neuroblastoma cells, human CGRP 0.8 nM as agonist, Kb estimated as agonist-corrected IC50, mean ± SEM; read-out: Kb hCGRP
T1 construct: SK-N-MC neuroblastoma cells (ATCC® HTB-10™) that endogenously express the hCGRP receptor; host or cells: SK-N-MC neuroblastoma cells
From the text: Inhibition of cAMP Production by CGRP Receptor Antagonists
The hCGRP (human calcitonin gene-related peptide) receptor is functionally coupled to the Gαs proteins. Stimulation of hCGRP results in an increased synthesis of intracellular cAMP and can be blocked by the addition of receptor antagonists. Receptor activity is thus a reflection of the amount of cAMP present within cells which can be detected using standard in vitro technology.
Cultured SK-N-MC neuroblastoma cells (ATCC® HTB-10™) that endogenously express the hCGRP receptor are grown in Eagle's Minimum essential medium (HYCLONE™) supplemented with 10% heat-inactivated Fetal bovine serum (FBS; GIBCO®), Non-Essential Amino Acids (GIBCO®), 1 mM sodium pyruvate, 2 mM L-glutamine, 100 U/mL of penicillin, and 10 μg/mL of streptomycin to about 70% confluency. After providing fresh medium, the cells are incubated at 37° C. overnight. On the day of the assay, cells are detached using ACCUTASE® (MP Biomedicals), resuspended in assay buffer [Hank's Balanced Salt Solution/Dulbecco's phosphate-buffered saline with […] each of CaCl2 and MgCl2 mixed 1:2, 3.3 mM 4-(2-hydroxyethyl)-1-piperazineethanesulfonic acid, 0.03% bovine serum albumin, and 0.5 mM 1-methyl-3-isobutylxanthine (as inhibitor of […])], and seeded 3-5K/well into 384-well, poly-D-lysine coated white plates (BD Biosciences).
For dose-response studies, compounds are serially diluted 1:3 in dimethyl sulfoxide and then 1:10 into assay buffer. Human CGRP (0.8 nM; Bachem) as a receptor-specific agonist for the hCGRP receptor is mixed with diluted compound and added to the cells as the challenge stimulant at their EC80 concentrations.
The amount of intracellular cAMP is quantitated using HTRF technology (Cisbio) as per vendor instructions. Briefly, cAMP-d2 conjugate and anti-cAMP-cryptate conjugate in lysis buffer are incubated with the treated cells at room temperature for 90 min. The HTRF signal is immediately detected using an ENVISION® plate reader (Perkin-Elmer) to calculate the ratio of fluorescence at […]. The raw data are converted to cAMP amount (pmole/well) using a cAMP standard curve generated for each experiment. Relative EC50 values are calculated from the top-bottom range of the concentration response curve using a four-parameter logistic curve fitting program (ACTIVITYBASE® v5.3.1.22 or GENEDATA SCREENER® v12.0.4), and Kb values are estimated as agonist-corrected IC50 values using the equation: Kb=(IC50)/[1+([Agonist]/EC50)]. Estimated Kb values are reported as mean values±SEM, averaged from the number of runs (n).

T1 sequence (Q16602 23-461): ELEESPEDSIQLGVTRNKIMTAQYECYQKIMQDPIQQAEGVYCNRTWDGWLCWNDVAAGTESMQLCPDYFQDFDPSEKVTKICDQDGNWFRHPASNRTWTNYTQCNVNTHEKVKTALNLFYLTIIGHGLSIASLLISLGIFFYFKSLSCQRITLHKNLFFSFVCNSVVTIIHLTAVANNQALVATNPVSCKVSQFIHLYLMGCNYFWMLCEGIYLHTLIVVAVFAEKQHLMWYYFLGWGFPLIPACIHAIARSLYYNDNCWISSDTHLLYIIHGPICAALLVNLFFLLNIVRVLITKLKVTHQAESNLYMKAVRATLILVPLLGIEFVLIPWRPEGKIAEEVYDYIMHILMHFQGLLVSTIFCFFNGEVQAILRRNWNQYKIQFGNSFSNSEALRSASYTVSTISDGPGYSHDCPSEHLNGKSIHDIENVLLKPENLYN
T1 sequence (O60894 27-148): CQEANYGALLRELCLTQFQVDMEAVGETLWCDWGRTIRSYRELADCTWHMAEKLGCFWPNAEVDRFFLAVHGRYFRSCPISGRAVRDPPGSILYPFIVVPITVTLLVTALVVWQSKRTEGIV

Kb [pM] | SMILES
18.2 | Cc1cc(CNC(=O)c2ccc([C@@H](C)[C@@]3(C)C(=O)Nc4ncccc43)cc2)cc(C2CCCC2)n1 [Example 6, N-[(2-cyclopentyl-6-methylpyridin-4-yl)methyl]-4-{(1R)-1-[(3R)-3-methyl-2-oxo-2,3-dihydro-1H-pyrrolo[2,3-b]pyridin-3-yl]ethyl}benzamide]
24.5 | Cc1cc(CNC(=O)c2ccc([C@@H](C)[C@@]3(C)C(=O)Nc4ncccc43)cn2)cc(C2CC2)n1 [Example 9, N-[(2-cyclopropyl-6-methylpyridin-4-yl)methyl]-5-{(1R)-1-[(3R)-3-methyl-2-oxo-2,3-dihydro-1H-pyrrolo[2,3-b]pyridin-3-yl]ethyl}pyridine-2-carboxamide]
26 | Cc1cc(CNC(=O)c2ccc([C@@H](C)[C@@]3(C)C(=O)Nc4ncccc43)cc2)cc(C(C)C)n1 [Example 14, 4-{(1R)-1-[(3R)-3-methyl-2-oxo-2,3-dihydro-1H-pyrrolo[2,3-b]pyridin-3-yl]ethyl}-N-{[2-methyl-6-(propan-2-yl)pyridin-4-yl]methyl}benzamide]
46.5 ± 9.7 | Cc1cc(CNC(=O)c2ccc([C@@H](C)[C@@]3(C)C(=O)Nc4ncccc43)cn2)cc(C)n1 [Example 1, N-[(2,6-dimethylpyridin-4-yl)methyl]-5-{(1R)-1-[(3R)-3-methyl-2-oxo-2,3-dihydro-1H-pyrrolo[2,3-b]pyridin-3-yl]ethyl}pyridine-2-carboxamide]
40.4 | Cc1cc(C#N)nc(CNC(=O)c2ccc([C@@H](C)[C@@]3(C)C(=O)Nc4ncccc43)cc2)c1 [Example 11, N-[(6-cyano-4-methyl-2-pyridyl)methyl]-4-[(1R)-1-[(3R)-3-methyl-2-oxo-1H-pyrrolo[2,3-b]pyridin-3-yl]ethyl]benzamide]
813 | Cc1cc(CNC(=O)c2ccc([C@@H](C)[C@@]3(C)C(=O)Nc4ncccc43)cc2)cc(C#N)n1 [Example 16, N-[(2-cyano-6-methylpyridin-4-yl)methyl]-4-{(1R)-1-[(3R)-3-methyl-2-oxo-2,3-dihydro-1H-pyrrolo[2,3-b]pyridin-3-yl]ethyl}benzamide]
17.3 | CCc1cc(CNC(=O)c2ccc([C@@H](C)[C@@]3(C)C(=O)Nc4ncccc43)cc2)cc(C)n1 [Example 3, N-[(2-ethyl-6-methylpyridin-4-yl)methyl]-4-{(1R)-1-[(3R)-3-methyl-2-oxo-2,3-dihydro-1H-pyrrolo[2,3-b]pyridin-3-yl]ethyl}benzamide]
171 ± 33.9 | Cc1cc(C)nc(CNC(=O)c2ccc([C@@H](C)[C@@]3(C)C(=O)Nc4ncccc43)cn2)c1 [Example 15, N-[(4,6-dimethylpyridin-2-yl)methyl]-5-{(1R)-1-[(3R)-3-methyl-2-oxo-2,3-dihydro-1H-pyrrolo[2,3-b]pyridin-3-yl]ethyl}pyridine-2-carboxamide]
198 ± 45.9 | Cc1cc(CNC(=O)c2ccc([C@@H](C)[C@@]3(C)C(=O)Nc4ncncc43)cn2)cc(C)n1 [Example 10, N-[(2,6-dimethyl-4-pyridyl)methyl]-5-[(1R)-1-[(5R)-5-methyl-6-oxo-7H-pyrrolo[2,3-d]pyrimidin-5-yl]ethyl]pyridine-2-carboxamide]
42.8 ± 13 | Cc1cc(C)nc(CNC(=O)c2ccc([C@@H](C)[C@@]3(C)C(=O)Nc4ncccc43)cc2)c1 [Example 12, N-[(4,6-dimethylpyridin-2-yl)methyl]-4-{(1R)-1-[(3R)-3-methyl-2-oxo-2,3-dihydro-1H-pyrrolo[2,3-]pyridin-3-yl]ethyl}benzamide]
97.7 ± 2.76 | Cc1cc(C)nc(CNC(=O)c2ccc([C@@H](C)[C@@]3(C)C(=O)Nc4ncncc43)cc2)c1 [Example 7, N-[(4,6-dimethylpyridin-2-yl)methyl]-4-{(1R)-1-[(5R)-5-methyl-6-oxo-6,7-dihydro-5H-pyrrolo[2,3-d]pyrimidin-5-yl]ethyl}benzamide]
6.96 | Cc1cc(CNC(=O)c2ccc([C@@H](C)[C@@]3(C)C(=O)Nc4ncccc43)cc2)cc(C2CCC2)n1 [Example 5, N-[(2-cyclobutyl-6-methylpyridin-4-yl)methyl]-4-{(1R)-1-[(3R)-3-methyl-2-oxo-2,3-dihydro-1H-pyrrolo[2,3-b]pyridin-3-yl]ethyl}benzamide]
26.6 | Cc1cc(CNC(=O)c2ccc([C@@H](C)[C@@]3(C)C(=O)Nc4ncccc43)cc2)cc(C2CC2)n1 [Example 4, N-[(2-cyclopropyl-6-methyl-4-pyridyl)methyl]-4-[(1R)-1-[(3R)-3-methyl-2-oxo-1H-pyrrolo[2,3-b]pyridin-3-yl]ethyl]benzamide]
45.3 ± 1.53 | CCc1cc(CNC(=O)c2ccc([C@@H](C)[C@@]3(C)C(=O)Nc4ncccc43)cn2)cc(C)n1 [Example 13, N-[(2-ethyl-6-methylpyridin-4-yl)methyl]-5-{(1R)-1-[(3R)-3-methyl-2-oxo-2,3-dihydro-1H-pyrrolo[2,3-b]pyridin-3-yl]ethyl}pyridine-2-carboxamide]
36.6 ± 15.4 | Cc1cc(CNC(=O)c2ccc([C@@H](C)[C@@]3(C)C(=O)Nc4ncccc43)cc2)cc(C)n1 [Example 2, N-[(2,6-dimethyl-4-pyridyl)methyl]-4-[(1R)-1-[(3R)-3-methyl-2-oxo-1H-pyrrolo[2,3-b]pyridin-3-yl]ethyl]benzamide]

tested on: CGRP receptor; experiment: Capsaicin-induced dermal blood flow (laser Doppler imaging) in non-human primates; assay type: in vivo; conditions: 3 mg/kg orally, 90 min prior to capsaicin, cynomolgus NHP, compared to vehicle, p<0.008
From the text: Capsaicin-induced dermal blood flow (DBF) is used as a target engagement biomarker to assess CGRP receptor activity in nonhuman primates (NHPs). Methods are adapted from earlier published procedures [Hershey et al., Regulatory Peptides, Volume 127, Issue 1-3, pp. 71-77, 2005].
Animal studies may be performed under protocols approved by the Covance Institutional Animal Care and Use Committee. Cynomolgus NHPs may be used given the close homology between NHP and human CGRP receptor. The study population may include healthy, CGRP antagonist naive cynomolgus NHP males weighing ˜3-4 kg.
Cynomolgus NHPs are enrolled in the study based on prescreening for capsaicin responsiveness. […] NHPs are used in a cross over design in which all NHPs received all doses after a two week wash-out period. Total n=10 NHPs per group.
NHPs each receive vehicle, 3, 10 and 30 mg/kg of the CGRP receptor antagonist Example 1 administered orally (10% Acacia w/v/0.05% Antifoam 1510-US emulsion v/v/in purified water) 90 min prior to the capsaicin administration in the laser Doppler imaging (LDI) experiment.
Animals are fasted overnight prior to each capsaicin challenge. On the day of the experiment, the NHPs are anesthetized with 1% Isoflurane for approximately 30 min prior to scanning. The NHPs are placed in a quiet, temperature-controlled room supine on a warm small surgical blanket and the shaved arm is placed on a heating pad under the laser head. Three neoprene O-rings (size=8 mm ID) are placed on the NHP forearm, approximately 1 cm apart. During a 30-minute stabilization period, preliminary scans are obtained to confirm correct positioning of the O-rings. […]
LDI repeat scans are analyzed using Moor software v.5.3 (Moor Instruments, Wilmington, Del.) by region of interest signal analysis, and Microsoft Excel worksheets are used for averaging the signal from the regions of interest at a given time point. […] Analyzed data is entered into Graphpad PRISM® 4.0 for graphing and a repeated measurement mixed-effect model in SAS® 9.1 is used for statistical analysis. Data is expressed as mean+/−SEM.

SMILES | group mean inhibition of capsaicin-induced dermal blood flow increase [%]
Cc1cc(CNC(=O)c2ccc([C@@H](C)[C@@]3(C)C(=O)Nc4ncccc43)cn2)cc(C)n1 [Example 1, N-[(2,6-dimethylpyridin-4-yl)methyl]-5-{(1R)-1-[(3R)-3-methyl-2-oxo-2,3-dihydro-1H-pyrrolo[2,3-b]pyridin-3-yl]ethyl}pyridine-2-carboxamide] | 32.1

same assay, conditions: 10 mg/kg orally, 90 min prior to capsaicin, cynomolgus NHP, compared to vehicle, p<0.0004

SMILES | group mean inhibition of capsaicin-induced dermal blood flow increase [%]
Cc1cc(CNC(=O)c2ccc([C@@H](C)[C@@]3(C)C(=O)Nc4ncccc43)cn2)cc(C)n1 [Example 1, N-[(2,6-dimethylpyridin-4-yl)methyl]-5-{(1R)-1-[(3R)-3-methyl-2-oxo-2,3-dihydro-1H-pyrrolo[2,3-b]pyridin-3-yl]ethyl}pyridine-2-carboxamide] | 46.1

same assay, conditions: 30 mg/kg orally, 90 min prior to capsaicin, cynomolgus NHP, compared to vehicle, p<0.00002

SMILES | group mean inhibition of capsaicin-induced dermal blood flow increase [%]
Cc1cc(CNC(=O)c2ccc([C@@H](C)[C@@]3(C)C(=O)Nc4ncccc43)cn2)cc(C)n1 [Example 1, N-[(2,6-dimethylpyridin-4-yl)methyl]-5-{(1R)-1-[(3R)-3-methyl-2-oxo-2,3-dihydro-1H-pyrrolo[2,3-b]pyridin-3-yl]ethyl}pyridine-2-carboxamide] | 58.8
